Source: patent US20200278355A1, “CONJUGATED PROTEINS AND USES THEREOF” (THE SCRIPPS RESEARCH INSTITUTE, priority 2017, published 2020)
“Also recorded” adds a separate entry of the source.

Biological target: T1, NR0B1-SNW1 interaction (Homo sapiens, UniProt P51843)
T1 construct: endogenous in cells; host or cells: NR0B1: H2122 cell lysate
T1 sequence (P51843 1-470): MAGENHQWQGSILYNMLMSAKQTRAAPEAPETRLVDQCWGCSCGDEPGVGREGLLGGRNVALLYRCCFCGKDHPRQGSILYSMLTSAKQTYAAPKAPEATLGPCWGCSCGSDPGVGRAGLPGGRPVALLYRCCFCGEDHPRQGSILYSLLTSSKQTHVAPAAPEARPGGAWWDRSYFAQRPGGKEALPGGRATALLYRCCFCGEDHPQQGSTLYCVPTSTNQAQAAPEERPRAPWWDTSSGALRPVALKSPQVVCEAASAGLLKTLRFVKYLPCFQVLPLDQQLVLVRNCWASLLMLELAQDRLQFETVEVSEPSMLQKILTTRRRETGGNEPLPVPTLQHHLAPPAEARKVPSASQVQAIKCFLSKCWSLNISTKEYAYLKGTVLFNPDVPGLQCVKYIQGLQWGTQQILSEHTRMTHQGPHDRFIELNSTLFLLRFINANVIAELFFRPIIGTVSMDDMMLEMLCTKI
Experiment: In vitro binding assay: NR0B1 in H2122 lysate binding to immobilized FLAG-SNW1
Conditions: for IC50: in vitro, read-out: IC50, inhibition of the NR0B1-SNW1 interaction
Protocol: H2122 clarified cell lysate (100 μL, 1 mg ml^−1) in IP-buffer were incubated with the indicated compounds or vehicle (DMSO) for 3 hours at 4° C. with rotation. Following treatment, 3 volumes of IP-buffer was added along with immobilized FLAG-SNW1 beads (30 μL, 50:50 slurry), which was incubated for an additional hour at 4° C. Beads were washed three times with IP-buffer supplemented with 500 mM NaCl. Immunoprecipitated proteins were resolved by SDS-PAGE and analyzed by immunoblotting. NR0B1 and HA-NR0B1 levels were determined by using the NR0B1 antibody (Cell Signaling). IC50 curves were determined using Prism 6 (Graphpad) software, with maximum and minimum values set at 100% NR0B1 bound 0% NR0B1 bound respectively.
Statistical analysis was preformed using GraphPad Prism version 6 or 7 for Mac, GraphPad Software, La Jolla Calif. USA, or the R statistical programming language. Inhibition curves of the NR0B1-SNW1 interactions by NR0B1-ligand are fit as using log(inhibitor) vs % normalized remaining of NR0B1-SNW1 interaction and data points are plotted as the mean±SD (n=2-5 per group). NR0B1 half-life was calculated from a one-phase exponential decay curve plotted as mean±SD (4-10 per group). Statistical significance was defined as p<0.05 and determined by 2-tailed Student's t-test (FIG. 1I, FIG. 3B), two-way Anova with Bonferroni post-test analysis (FIG. 1J) or correlation analysis using Pearson product-moment correlation coefficient (FIG. 4B, FIG. 10G).
Next, a chemical probe targeting C274 of NR0B1 was developed. Using an in vitro binding assay (FIG. 5B), an ˜80-member library of cysteine-reactive electrophilic compounds was screened at 50 μM for blockade of interactions between endogenous NR0B1 and recombinant FLAG-SNW1 in cell lysates (FIG. 5C). Among the hits (>50% blockade) were a series of N-disubstituted chloroacetamides (CAs), including BPK-26 (FIGS. 5D, 5E), that were selected for further investigation. […] Both BPK-26 and BPK-29 inhibited the NR0B1-SNW1 interaction with IC50 values between 10-20 μM in vitro (FIG. 11C).

Row | inhibition of the NR0B1-SNW1 interaction (tested concentration range of 1-50 μM) | IC50 | blockade of interactions between endogenous NR0B1 and recombinant FLAG-SNW1 (screened at 50 μM in cell lysates) | SMILES | relative potency for inhibition of FLAG-SNW1 binding to NR0B1 (structure-activity relationship) (compounds at 50 μM)
1 | did not inhibit | – | – | O=C(c1ccc(N2CCOCC2)cc1)N1CCC(CN(C(=O)CCl)c2cncnc2)CC1 [BPK-9, 2-chloro-N-((1-(4-morpholinobenzoyl)piperidin-4-yl)methyl)-N-(pyrimidin-5-yl)acetamide] | –
2 | – | 10 to 20 µM | > 50% | O=C(CCl)N(Cc1cccc(Cl)c1F)c1ccc(Cl)nc1 [BPK-26, 2-chloro-N-(3-chloro-2-fluorobenzyl)-N-(6-chloropyridin-3-yl)acetamide] | –
3 | – | 10 to 20 µM | – | O=C(c1ccc(N2CCOCC2)cc1)N1CCCC(N(Cc2ccccc2)C(=O)CCl)CC1 (centres unmarked) [BPK-29, N-benzyl-2-chloro-N-(1-(4-morpholinobenzoyl)azepan-4-yl)acetamide] | the most potent analogue; also recorded: recovered potency
